{
  "source": "paper PMC5218480",
  "about": "(PLoS ONE, 2017)",
  "system": "MV-4-11 cells",
  "test": "Gene expression microarray analysis (Affymetrix PrimeView) and GSEA",
  "assay_type": "cell-based, human",
  "design": "RFU PODN (11730768_x_at) / Fold change /veh PODN (11730768_x_at) / RFU LINC00158 (11744669_a_at) / Fold change /veh LINC00158 (11744669_a_at) / RFU DUSP10 (11751237_a_at) / Fold change /veh DUSP10 (11751237_a_at) / RFU ID3 (11757404_x_at) / Fold change /veh ID3 (11757404_x_at) / RFU PLEKHG5 (11737974_s_at) / Fold change /veh PLEKHG5 (11737974_s_at) / RFU LRRC4B (11730491_at) / Fold change /veh LRRC4B (11730491_at) / RFU GIMAP4 (11747438_a_at) / Fold change /veh GIMAP4 (11747438_a_at) / RFU KRT8 (11758183_x_at) / Fold change /veh KRT8 (11758183_x_at) / RFU CNN1 (11734310_a_at) / Fold change /veh CNN1 (11734310_a_at) / RFU VPS37D (11726825_at) / Fold change /veh VPS37D (11726825_at) / RFU C10orf10 (11716522_x_at) / Fold change /veh C10orf10 (11716522_x_at) / RFU KIR2DL2 /// KIR2DL4 /// KIR2DL5A /// KIR2DL5B /// KIR2DS1 /// KIR2DS2 /// KIR2DS3 /// KIR2DS4 /// KIR3DL3 /// KIR3DL3 /// KIR3DS1 (11738374_at) / Fold change /veh KIR2DL2 /// KIR2DL4 /// KIR2DL5A /// KIR2DL5B /// KIR2DS1 /// KIR2DS2 /// KIR2DS3 /// KIR2DS4 /// KIR3DL3 /// KIR3DL3 /// KIR3DS1 (11738374_at) / RFU C1QL1 (11718748_at) / Fold change /veh C1QL1 (11718748_at) / RFU TMPRSS4 (11747572_a_at) / Fold change /veh TMPRSS4 (11747572_a_at) / RFU HAMP (11756126_x_at) / Fold change /veh HAMP (11756126_x_at) / RFU RNFT2 (11725882_a_at) / Fold change /veh RNFT2 (11725882_a_at) / RFU NR4A2 (11747474_a_at) / Fold change /veh NR4A2 (11747474_a_at) / RFU ABCC12 (11746883_a_at) / Fold change /veh ABCC12 (11746883_a_at) / RFU TMEM136 (11760407_x_at) / Fold change /veh TMEM136 (11760407_x_at) / RFU CLDN22 /// WWC2 (11732394_at) / Fold change /veh CLDN22 /// WWC2 (11732394_at) / RFU HLA-DPB1 (11760878_x_at) / Fold change /veh HLA-DPB1 (11760878_x_at) / RFU SPINT1 (11716480_a_at) / Fold change /veh SPINT1 (11716480_a_at) / RFU GAP43 (11754022_s_at) / Fold change /veh GAP43 (11754022_s_at) / RFU A4GNT (11735810_at) / Fold change /veh A4GNT (11735810_at) / RFU PRB3 (11715151_x_at) / Fold change /veh PRB3 (11715151_x_at) / RFU TUBB4B (11761932_at) / Fold change /veh TUBB4B (11761932_at) / RFU CAPN14 (11732068_a_at) / Fold change /veh CAPN14 (11732068_a_at) / RFU TMCC2 (11721928_a_at) / Fold change /veh TMCC2 (11721928_a_at) / RFU IRGQ (11745062_a_at) / Fold change /veh IRGQ (11745062_a_at) / RFU FAM174B (11720279_a_at) / Fold change /veh FAM174B (11720279_a_at) / RFU TMPRSS4 (11748680_a_at) / Fold change /veh TMPRSS4 (11748680_a_at) / RFU FAM212B (11763350_a_at) / Fold change /veh FAM212B (11763350_a_at) / RFU PLEKHG5 (11743358_a_at) / Fold change /veh PLEKHG5 (11743358_a_at) / RFU ZSCAN30 (11745921_a_at) / Fold change /veh ZSCAN30 (11745921_a_at) / RFU CMKLR1 (11741424_a_at) / Fold change /veh CMKLR1 (11741424_a_at) / RFU LOC101060620 /// MAPK8IP1 (11723275_at) / Fold change /veh LOC101060620 /// MAPK8IP1 (11723275_at) / RFU SPTSSB (11747773_x_at) / Fold change /veh SPTSSB (11747773_x_at) / RFU PRSS12 (11739890_at) / Fold change /veh PRSS12 (11739890_at) / RFU BIN1 (11741810_x_at) / Fold change /veh BIN1 (11741810_x_at) / RFU WNT11 (11732464_a_at) / Fold change /veh WNT11 (11732464_a_at) / RFU C10orf10 (11716521_a_at) / Fold change /veh C10orf10 (11716521_a_at) / RFU C5orf56 (11738089_at) / Fold change /veh C5orf56 (11738089_at) / RFU CYB561 (11721691_x_at) / Fold change /veh CYB561 (11721691_x_at) / RFU ANKRD19P (11752326_a_at) / Fold change /veh ANKRD19P (11752326_a_at) / RFU OR2T12 /// OR2T33 /// OR2T8 (11738714_s_at) / Fold change /veh OR2T12 /// OR2T33 /// OR2T8 (11738714_s_at) / RFU VCAN (11748164_a_at) / Fold change /veh VCAN (11748164_a_at) / RFU JSRP1 (11732532_at) / Fold change /veh JSRP1 (11732532_at) / RFU KRTAP10-11 (11738290_x_at) / Fold change /veh KRTAP10-11 (11738290_x_at) / RFU MYO3A (11730013_a_at) / Fold change /veh MYO3A (11730013_a_at) / RFU EBF3 (11725865_a_at) / Fold change /veh EBF3 (11725865_a_at) / RFU CAMK2N1 (11719241_x_at) / Fold change /veh CAMK2N1 (11719241_x_at) / RFU C5orf56 (11738088_a_at) / Fold change /veh C5orf56 (11738088_a_at) / RFU OLFML3 (11715873_a_at) / Fold change /veh OLFML3 (11715873_a_at) / RFU LOC100653217 /// NTM (11731650_a_at) / Fold change /veh LOC100653217 /// NTM (11731650_a_at) / RFU MAPK11 (11762145_a_at) / Fold change /veh MAPK11 (11762145_a_at) / RFU FIZ1 (11724087_x_at) / Fold change /veh FIZ1 (11724087_x_at) / RFU OASL (11726364_x_at) / Fold change /veh OASL (11726364_x_at) / RFU SOX15 (11748057_x_at) / Fold change /veh SOX15 (11748057_x_at) / RFU CD79A (11719716_a_at) / Fold change /veh CD79A (11719716_a_at) / RFU HIST1H1D (11736915_at) / Fold change /veh HIST1H1D (11736915_at) / RFU CASKIN2 (11723855_a_at) / Fold change /veh CASKIN2 (11723855_a_at) / RFU LOC730098 (11760151_x_at) / Fold change /veh LOC730098 (11760151_x_at) / RFU OR4N2 (11742367_at) / Fold change /veh OR4N2 (11742367_at) / RFU PRRT2 (11749266_a_at) / Fold change /veh PRRT2 (11749266_a_at) / RFU SNX32 (11753110_a_at) / Fold change /veh SNX32 (11753110_a_at) / RFU CDHR5 (11726645_a_at) / Fold change /veh CDHR5 (11726645_a_at) / RFU RCAN1 (11760418_a_at) / Fold change /veh RCAN1 (11760418_a_at) / RFU FAM167A (11723789_a_at) / Fold change /veh FAM167A (11723789_a_at) / RFU FAM26E (11764081_at) / Fold change /veh FAM26E (11764081_at) / RFU ISYNA1 (11749810_s_at) / Fold change /veh ISYNA1 (11749810_s_at) / RFU ACY1 (11761880_at) / Fold change /veh ACY1 (11761880_at) / RFU 11764098_at / Fold change /veh 11764098_at / RFU SAMD14 (11745864_x_at) / Fold change /veh SAMD14 (11745864_x_at) / RFU NPB (11741838_a_at) / Fold change /veh NPB (11741838_a_at) / RFU TMPRSS6 (11731388_a_at) / Fold change /veh TMPRSS6 (11731388_a_at) / RFU KRTAP10-2 (11738614_at) / Fold change /veh KRTAP10-2 (11738614_at) / RFU ARHGAP8 /// PRR5-ARHGAP8 (11727945_x_at) / Fold change /veh ARHGAP8 /// PRR5-ARHGAP8 (11727945_x_at) / RFU KRTAP5-7 /// NADSYN1 (11734609_at) / Fold change /veh KRTAP5-7 /// NADSYN1 (11734609_at) / RFU RASL12 (11751679_a_at) / Fold change /veh RASL12 (11751679_a_at) / RFU CDKN2B (11736163_a_at) / Fold change /veh CDKN2B (11736163_a_at) / RFU PRF1 (11729649_at) / Fold change /veh PRF1 (11729649_at) / RFU, ZNF638 /// ZNF638-IT1 / Fold change vs veh, ZNF638 /// ZNF638-IT1 / RFU, PANK3 / Fold change vs veh, PANK3 / RFU, SH3YL1 / Fold change vs veh, SH3YL1 / RFU, ZEB2 / Fold change vs veh, ZEB2 / RFU, NRIP1 / Fold change vs veh, NRIP1 / RFU, PTTG1IP / Fold change vs veh, PTTG1IP / RFU, CAPN2 / Fold change vs veh, CAPN2 / RFU, MED14 / Fold change vs veh, MED14 / RFU, SNORA58 / Fold change vs veh, SNORA58 / RFU, C1orf63 / Fold change vs veh, C1orf63 / RFU, LRRFIP1 / Fold change vs veh, LRRFIP1 / RFU, NDUFAF7 / Fold change vs veh, NDUFAF7 / RFU, SLC12A2 / Fold change vs veh, SLC12A2 / RFU, IBTK / Fold change vs veh, IBTK / RFU, ESF1 / Fold change vs veh, ESF1 / Fold change vs veh, TMEM50B / RFU, TAOK1 / Fold change vs veh, TAOK1 / RFU, ACBD3 / Fold change vs veh, ACBD3 / RFU, TMA16 / Fold change vs veh, TMA16 / RFU, RWDD3 / Fold change vs veh, RWDD3 / RFU, BCAT1 / Fold change vs veh, BCAT1 / RFU, EDEM3 / Fold change vs veh, EDEM3 / RFU, TMEM33 / Fold change vs veh, TMEM33 / RFU, WDR75 / Fold change vs veh, WDR75 / RFU, AHCTF1 / Fold change vs veh, AHCTF1 / RFU, TFRC / Fold change vs veh, TFRC / RFU, ZDHHC17 / Fold change vs veh, ZDHHC17 / RFU, NOM1 / Fold change vs veh, NOM1 / RFU, ARL8B / Fold change vs veh, ARL8B / RFU, ZBTB11 / Fold change vs veh, ZBTB11 / RFU, TAMM41 / Fold change vs veh, TAMM41 / RFU, KIAA1704 /// LOC100996395 / Fold change vs veh, KIAA1704 /// LOC100996395 / RFU, ING1 / Fold change vs veh, ING1 / RFU, TRMT61B / Fold change vs veh, TRMT61B / RFU, FUBP3 / Fold change vs veh, FUBP3 / RFU, TP53 / Fold change vs veh, TP53 / RFU, TNKS2 / Fold change vs veh, TNKS2 / RFU, ZFP14 / Fold change vs veh, ZFP14 / RFU, ACTR2 / Fold change vs veh, ACTR2 / RFU, PPP3R1 / Fold change vs veh, PPP3R1 / RFU, PIK3R1 / Fold change vs veh, PIK3R1 / RFU, HNRNPA1 / Fold change vs veh, HNRNPA1 / RFU, RNF170 / Fold change vs veh, RNF170 / RFU, ZNF28 / Fold change vs veh, ZNF28 / RFU, RNGTT / Fold change vs veh, RNGTT / RFU, OGT / Fold change vs veh, OGT / RFU, BRD1 / Fold change vs veh, BRD1 / RFU, MARS / Fold change vs veh, MARS / RFU, ZNF655 / Fold change vs veh, ZNF655 / RFU, FAHD1 / Fold change vs veh, FAHD1 / RFU, BDP1 / Fold change vs veh, BDP1 / RFU, LRRCC1 / Fold change vs veh, LRRCC1 / RFU, ARID1A / Fold change vs veh, ARID1A / RFU, ZNF146 / Fold change vs veh, ZNF146 / RFU, ZNF330 / Fold change vs veh, ZNF330 / RFU, GPN3 / Fold change vs veh, GPN3 / RFU, C9orf123 / Fold change vs veh, C9orf123 / RFU, N4BP2L2 / Fold change vs veh, N4BP2L2 / RFU, ARFIP1 / Fold change vs veh, ARFIP1 / RFU, FAM179B / Fold change vs veh, FAM179B / RFU, BCL10 / Fold change vs veh, BCL10 / RFU, UHRF1BP1L / Fold change vs veh, UHRF1BP1L / RFU, BET1 / Fold change vs veh, BET1 / RFU, CNOT2 / Fold change vs veh, CNOT2 / RFU, ZNF268 / Fold change vs veh, ZNF268 / Fold change vs veh, ZNF507 / RFU, DGCR2 / Fold change vs veh, DGCR2 / RFU, WDSUB1 / Fold change vs veh, WDSUB1 / Fold change vs veh, HSP90B1 /// MIR3652 / RFU, ADSS / Fold change vs veh, ADSS / RFU, GK / Fold change vs veh, GK / RFU, ZNF148 / Fold change vs veh, ZNF148 / RFU, TAF9 / Fold change vs veh, TAF9 / RFU, SLC1A5 / Fold change vs veh, SLC1A5 / RFU, SLMO2 / Fold change vs veh, SLMO2 / RFU, ABCC4 / Fold change vs veh, ABCC4 / RFU, LOC101060439 /// RAP1B / Fold change vs veh, LOC101060439 /// RAP1B / RFU, RFX7 / Fold change vs veh, RFX7 / RFU, GTPBP10 / Fold change vs veh, GTPBP10 / RFU, CNEP1R1 / Fold change vs veh, CNEP1R1 / RFU, BIVM-ERCC5 /// ERCC5 / Fold change vs veh, BIVM-ERCC5 /// ERCC5 / RFU, ILF3 / Fold change vs veh, ILF3 / RFU 11762660_at / Fold change /veh 11762660_at / RFU VCAN (11757783_s_at) / Fold change /veh VCAN (11757783_s_at) / RFU DDX43 (11728927_at) / Fold change /veh DDX43 (11728927_at) / RFU KRT8 (11758188_x_at) / Fold change /veh KRT8 (11758188_x_at) / RFU NKD1 (11759106_at) / Fold change /veh NKD1 (11759106_at) / RFU SRD5A1 (11742802_a_at) / Fold change /veh SRD5A1 (11742802_a_at) / RFU TPSAB1 /// TPSB2 (11721975_s_at) / Fold change /veh TPSAB1 /// TPSB2 (11721975_s_at) / RFU GSTM3 (11746129_a_at) / Fold change /veh GSTM3 (11746129_a_at) / RFU IL23R (11737362_x_at) / Fold change /veh IL23R (11737362_x_at) / RFU TMEM51 (11727254_a_at) / Fold change /veh TMEM51 (11727254_a_at) / RFU PIWIL2 (11732686_x_at) / Fold change /veh PIWIL2 (11732686_x_at) / RFU ORM1 (11744905_x_at) / Fold change /veh ORM1 (11744905_x_at) / RFU CCDC152 (11743942_at) / Fold change /veh CCDC152 (11743942_at) / RFU ECM1 (11717891_a_at) / Fold change /veh ECM1 (11717891_a_at) / RFU IL23R (11748794_a_at) / Fold change /veh IL23R (11748794_a_at) / RFU TNFAIP8L3 (11732012_x_at) / Fold change /veh TNFAIP8L3 (11732012_x_at) / RFU MBOAT4 (11741988_at) / Fold change /veh MBOAT4 (11741988_at) / RFU 11764193_at / Fold change /veh 11764193_at / RFU TMEM53 (11763286_at) / Fold change /veh TMEM53 (11763286_at) / RFU MAGEB2 (11727129_at) / Fold change /veh MAGEB2 (11727129_at) / RFU TMEM200A (11744735_a_at) / Fold change /veh TMEM200A (11744735_a_at) / RFU CCDC152 (11751479_a_at) / Fold change /veh CCDC152 (11751479_a_at) / RFU FAM211A (11726209_a_at) / Fold change /veh FAM211A (11726209_a_at) / RFU RGS16 (11746705_a_at) / Fold change /veh RGS16 (11746705_a_at) / RFU VCAN (11755009_s_at) / Fold change /veh VCAN (11755009_s_at) / RFU RHOB (11743442_s_at) / Fold change /veh RHOB (11743442_s_at) / RFU RGS16 (11720943_a_at) / Fold change /veh RGS16 (11720943_a_at) / RFU RGS16 (11720944_at) / Fold change /veh RGS16 (11720944_at) / RFU, VPS4B / Fold change vs veh, VPS4B / RFU, CREB1 / Fold change vs veh, CREB1 / RFU, DNAJC13 / Fold change vs veh, DNAJC13 / RFU, GNAQ / Fold change vs veh, GNAQ / RFU, CDK5R1 / Fold change vs veh, CDK5R1 / RFU, ZRANB3 / Fold change vs veh, ZRANB3 / RFU, CUL4A / Fold change vs veh, CUL4A / RFU, CCNY / Fold change vs veh, CCNY / RFU, UFL1 / Fold change vs veh, UFL1 / RFU, COG3 / Fold change vs veh, COG3 / RFU, DIAPH2 / Fold change vs veh, DIAPH2 / RFU, SKA2 / Fold change vs veh, SKA2 / RFU, AFF3 / Fold change vs veh, AFF3 / RFU, LMF1 / Fold change vs veh, LMF1 / RFU, IPO11 / Fold change vs veh, IPO11 / RFU, DFFB / Fold change vs veh, DFFB / RFU, FOXP1 / Fold change vs veh, FOXP1 / RFU, CARD8 / Fold change vs veh, CARD8 / RFU, STRN3 / Fold change vs veh, STRN3 / RFU, ADK / Fold change vs veh, ADK / RFU, RASSF2 / Fold change vs veh, RASSF2 / RFU, WIPF1 / Fold change vs veh, WIPF1 / RFU, LARP1B / Fold change vs veh, LARP1B / RFU, RASA1 / Fold change vs veh, RASA1 / RFU, RB1 / Fold change vs veh, RB1 / RFU, PPFIA1 / Fold change vs veh, PPFIA1 / RFU, MAT2A / Fold change vs veh, MAT2A / RFU, CCT5 / Fold change vs veh, CCT5 / RFU, WDR92 / Fold change vs veh, WDR92 / RFU, CUX1 / Fold change vs veh, CUX1 / RFU, TTC7A / Fold change vs veh, TTC7A / RFU, TMEM135 / Fold change vs veh, TMEM135 / RFU, DEPTOR / Fold change vs veh, DEPTOR / RFU, CPM / Fold change vs veh, CPM / RFU, DNAJB6 / Fold change vs veh, DNAJB6 / RFU, CACNA2D3 / Fold change vs veh, CACNA2D3 / RFU, DTX4 / Fold change vs veh, DTX4 / RFU, TFCP2 / Fold change vs veh, TFCP2 / RFU, GMCL1 /// GMCL1P1 / Fold change vs veh, GMCL1 /// GMCL1P1 / RFU, AEBP2 / Fold change vs veh, AEBP2 / RFU, SNHG1 /// SNORD22 /// SNORD25 /// SNORD26 /// SNORD27 /// SNORD28 /// SNORD29 /// SNORD31 / Fold change vs veh, SNHG1 /// SNORD22 /// SNORD25 /// SNORD26 /// SNORD27 /// SNORD28 /// SNORD29 /// SNORD31 / Fold change (Aza/veh), C12orf56 (ProbeSet 11735607_a_at) / Fold change (ACY-1035/veh), C12orf56 (ProbeSet 11735607_a_at) / Fold change (Aza/veh), FGFR1OP (ProbeSet 11751329_s_at) / Fold change (ACY-1035/veh), FGFR1OP (ProbeSet 11751329_s_at) / Fold change (Aza/veh), VPS36 (ProbeSet 11739960_a_at) / Fold change (ACY-1035/veh), VPS36 (ProbeSet 11739960_a_at) / RFU SYPL1 (11715823_x_at) / Fold change /veh SYPL1 (11715823_x_at) / RFU IGFBP7 (11715501_s_at) / Fold change /veh IGFBP7 (11715501_s_at) / RFU REEP3 (11722064_at) / Fold change /veh REEP3 (11722064_at) / RFU IGLL1 (11728026_x_at) / Fold change /veh IGLL1 (11728026_x_at): dose or concentration left out as unconfirmed",
  "details": "ProbeSet 11733831_s_at; LIST D",
  "data": [
    {"smiles": "Nc1ncn([C@@H]2O[C@H](CO)[C@@H](O)[C@H]2O)c(=O)n1", "note": "[azacitidine]", "values": [
      {"measurement": "RFU, GMCL1 /// GMCL1P1", "result": 32.38, "unit": "RFU"}
    ]}
  ]
}
